Data published in patent publication US20240034736A1, “HSD17B13 INHIBITORS AND USES THEREOF” (FL2022-001, Inc., priority 2020, published 2024).

target: Recombinant human HSD17B13 enzyme (Homo sapiens (Human), UniProt Q7Z5P4); experiment: HSD17b13 NAD(P)H-Glo Biochemical Assay; settings: 50 uM estradiol, 1 mM NAD+; read-out: HSD17β13 IC50
Protocol: Recombinant human HSD17B13 enzyme. Substrate: estradiol (Sigma β-Estradiol E8875), 100 mM in DMSO. […] Assay buffer final concentration: 20 mM Tris pH7.4 with 0.002% Tween-20 and 0.02% BSA. […] Enzymatic activity detected by NAD(P)H-Glo™ Detection System (Promega G9062).
Inhibitor compounds were serially diluted in DMSO and then further diluted in assay buffer to a 10× concentration consisting of 1% DMSO.
HSD17b13 enzyme was diluted in 1× assay buffer to the desired enzyme concentration based on the specific activity of the enzyme lot. 20 uL of diluted enzyme was added to each well along with 2.5 uL of 10× inhibitor solution. Assay plate was incubated at RT for 20 minutes, and then 2.5 uL of a 10× substrate/cofactor mix was added to each well for a final concentration of 50 uM estradiol and 1 mMNAD+. Assay plate was incubated at 37° C. for 3 hours. NAD(P)H-Glo™ Detection System reagents were prepared according to manufacturer's specifications, and 25 uL was added to each well. After incubating for 1 hour at RT, luminescence was measured.

Recombinant human HSD17B13 enzyme, sequence (Q7Z5P4 20-300): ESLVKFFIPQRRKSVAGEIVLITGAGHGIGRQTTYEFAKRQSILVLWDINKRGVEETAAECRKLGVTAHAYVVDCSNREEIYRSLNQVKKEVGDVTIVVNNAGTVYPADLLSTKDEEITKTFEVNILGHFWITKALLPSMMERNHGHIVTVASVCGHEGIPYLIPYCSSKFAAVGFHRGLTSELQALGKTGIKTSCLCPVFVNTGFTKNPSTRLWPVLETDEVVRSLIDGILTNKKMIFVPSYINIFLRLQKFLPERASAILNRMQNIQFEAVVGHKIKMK

IC50 [nM]	SMILES
100 to 1000	Oc1cc(-n2ncc3cc(-c4ccc(OC(F)F)cc4Cl)ccc32)ccc1F [Compound 5.08, 5-(5-(2-Chloro-4-(difluoromethoxy)phenyl)-1H-indazol-1-yl)-2-fluorophenol]
< 100	Oc1cc(-n2ncc3cc(N4CCC5(CC4)CC5)ncc32)cc(C(F)(F)F)c1F [Compound 21.44, 5-(5-(6-Azaspiro[2.5]octan-6-yl)-1H-pyrazolo[3,4-c]pyridine-1-yl)-2-fluoro-3-(trifluoro-methyl)phenol]
100 to 1000	Oc1cc(-c2noc3cc(-c4ccc(O)c(Cl)c4)ccc23)ccc1F [Compound 5.30, 2-Chloro-4-(3-(4-fluoro-3-hydroxyphenyl)benzo[d]isoxazol-6-yl)phenol]
100 to 1000	Oc1c(F)c(-n2nnc3cc(N4CCOCC45CC5)ncc32)cc(C(F)(F)F)c1F [Compound 21.59, 3-(6-(7-Oxa-4-azaspiro[2.5]-octan-4-yl)-3H-[1,2,3]triazolo-[4,5-c]pyridin-3-yl)-2,6-difluoro-5-(trifluoromethyl)-phenol]
100 to 1000	CS(=O)(=O)N1CCN(c2cc3cnn(-c4cc(C(F)(F)F)c(F)c(O)c4F)c3cn2)CC1 [Compound 19.38, 2,6-Difluoro-3-(5-(4-(methylsulfonyl)piperazin-1-yl)-1H-pyrazolo[3,4-c]pyridine-1-yl)-5-(trifluoromethyl)phenol]
100 to 1000	CCCCCOc1ncc2c(n1)c(C)nn2-c1cc(C(F)(F)F)c(F)c(O)c1F [Compound 19.117, 2,6-Difluoro-3-(3-methyl-5-(pentyloxy)-1H-pyrazolo[4,3-d]pyrimidin-1-yl)-5-(trifluoromethyl)phenol]
1000 to 30000	Oc1cc(-n2ncc3nc(-c4ccc(O)c(Cl)c4)ccc32)ccc1F [Compound 8.03, 2-Chloro-4-(1-(4-fluoro-3-hydroxyphenyl)-1H-pyrazolo[4,3-b]pyridine-5-yl)phenol]
1000 to 30000	CS(=O)(=O)N1CCC(CO)(c2ccc3c(cnn3-c3cc(O)c(F)c(F)c3)c2)CC1 [Compound 28.01]
100 to 1000	Oc1cc(-n2nc(Cl)c3cc(-c4ccc(O)c(Cl)c4)ccc32)ccc1F [Compound 4.14, 2-Chloro-4-(3-chloro-1-(4-fluoro-3-hydroxyphenyl)-1H-indazol-5-yl)phenol]
1000 to 30000	CS(=O)(=O)N1CCN(c2ccc3c(cnn3-c3ccc(F)c(O)c3)c2)CC1 [Compound 20, 2-Fluoro-5-(5-(4-(methylsulfonyl)piperazin-1-yl)-1H-indazol-1-yl)phenol]
1000 to 30000	CS(=O)(=O)N1CCN(c2cc3cnn(-c4cc(O)c(F)cn4)c3cn2)CC1 [Compound 19.19, 5-Fluoro-2-(5-(4-(methylsulfonyl)piperazin-1-yl)-1H-pyrazolo[3,4-c]pyridine-1-yl)pyridine-4-ol]
< 100	Cc1nn(-c2cc(C(F)(F)F)c(F)c(O)c2F)c2ccc(N3CCOCC34CC4)cc12 [Compound 19.94, 2,6-Difluoro-3-(3-methyl-5-(7-oxa-4-azaspiro[2.5]octan-4-yl)-1H-indazol-1-yl)-5-(trifluoromethyl)phenol]
100 to 1000	CS(=O)(=O)N1CCN(c2cc3c(C4CC4)nn(-c4cc(O)c(F)c(C(F)(F)F)c4)c3cn2)CC1 [Compound 21.51, 5-(3-Cyclopropyl-5-(4-(meth-ylsulfonyl)piperazin-1-yl)-1H-pyrazolo[3,4-c]pyridine-1-yl)-2-fluoro-3-(trifluoromethyl)-phenol]
100 to 1000	Cc1nn(-c2cc(C(F)(F)F)c(F)c(O)c2F)c2cnc(N3CCN(c4cnn(C)c4)CC3)cc12 [Compound 19.64, 2,6-Difluoro-3-(3-methyl-5-(4-(1-methyl-1H-pyrazol-4-yl)piperazin-1-yl)-1H-pyrazolo[3,4-c]pyridin-1-yl)-5-(trifluoromethyl)phenol]
< 100	CS(=O)(=O)N1CCN(c2cc3cnn(-c4cc(O)c(F)c(C(F)(F)F)c4)c3cc2Cl)CC1 [Compound 19, 5-(6-Chloro-5-(4-(methylsulfonyl)piperazin-1-yl)-1H-indazol-1-yl)-2-fluoro-3-(trifluoromethyl)phenol]
100 to 1000	CN(C)C(=O)c1nn(-c2ccc(F)c(O)c2)c2ccc(-c3ccc(O)c(Cl)c3)cc12 [Compound 14, 5-(3-Chloro-4-hydroxyphenyl)-1-(4-fluoro-3-hydroxyphenyl)-N,N-dimethyl-1H-indazole-3-carboxamide]

IC50 [nM]	SMILES
100 to 1000	CS(=O)(=O)C1CN(c2ccc3c(cnn3-c3cc(O)c(F)c(F)c3)c2)C1 [Compound 21.31, 2,3-Difluoro-5-(5-(3-(methyl-sulfonyl)azetidin-1-yl)-1H-indazol-1-yl)phenol]
1000 to 30000	Cc1cc(-n2ncc3cc(N4CCN(S(C)(=O)=O)CC4)ncc32)cc(O)c1F [Compound 19.23, 2-Fluoro-3-methyl-5-(5-(4-(methylsulfonyl)piperazin-1-yl)-1H-pyrazolo[3,4-c]pyridine-1-yl)phenol]
1000 to 30000	CS(=O)(=O)N1CCN(c2cc3cnn(-c4cccc(O)c4C#N)c3cn2)CC1 [Compound 19.39, 2-Hydroxy-6-(5-(4-(methylsulfonyl)piperazin-1-yl)-1H-pyrazolo[3,4-c]pyridine-1-yl)benzonitrile]
1000 to 30000	Oc1ccc(F)c(-n2ncc3cc(-c4ccc(O)c(Cl)c4)ccc32)c1 [Compound 1, 2-Chloro-4-(1-(2-fluoro-5-hydroxyphenyl)-1H-indazol-5-yl)phenol]
100 to 1000	CS(=O)(=O)N1CCN(c2cc3cnn(-c4cc(O)c(F)c(Cl)c4)c3cc2F)CC1 [Compound 19.02, 3-Chloro-2-fluoro-5-(6-fluoro-5-(4-(methylsulfonyl)piperazin-1-yl)-1H-indazol-1-yl)phenol]
100 to 1000	CS(=O)(=O)N1CCN(c2cc3cnn(-c4cc(O)c(F)c(F)c4)c3cn2)CC1 [Compound 21.40, 2,3-Difluoro-5-(5-(4-(methyl-sulfonyl)piperazin-1-yl)-1H-pyrazolo[3,4-c]pyridine-1-yl)-phenol]
< 100	Cc1nn(-c2cc(C(F)(F)F)c(F)c(O)c2F)c2cnc(N3CCOCC34CC4)cc12 [Compound 19.44, 2,6-Difluoro-3-(3-methyl-5-(7-oxa-4-azaspiro[2.5]octan-4-yl)-1H-pyrazolo[3,4-c]pyridine-1-yl)-5-(trifluoromethyl)phenol]
1000 to 30000	Cc1cc(-n2cc3cc(N4CCN(S(C)(=O)=O)CC4)ncc3n2)cc(O)c1F [Compound 19.24, 2-Fluoro-3-methyl-5-(5-(4-(methylsulfonyl)piperazin-1-yl)-2H-pyrazolo[3,4-c]pyridine-2-yl)phenol]
1000 to 30000	CS(=O)(=O)NC1CN(c2ccc3c(cnn3-c3cc(O)c(F)c(F)c3)c2)C1 [Compound 21.07, N-(1-(1-(3,4-Difluoro-5-hydroxyphenyl)-1H-indazol-5-yl)azetidine-3-yl)methane-sulfonamide]
100 to 1000	Oc1cc(-n2ncc3cc(-c4ccc(O)c(Cl)c4)ccc32)cc(C(F)(F)F)c1 [Compound 3.04, 2-Chloro-4-(1-(3-hydroxy-5-(trifluoromethyl)phenyl)-1H-indazol-5-yl)phenol]
1000 to 30000	CS(=O)(=O)N1CCN(c2cc3cnn(-c4cc(O)ccc4C#N)c3cn2)CC1 [Compound 19.41, 4-Hydroxy-2-(5-(4-(methylsulfonyl)piperazin-1-yl)-1H-pyrazolo[3,4-c]pyridine-1-yl)benzonitrile]
< 100	COC1CCN(c2cc3c(C)nn(-c4cc(C(F)(F)F)c(F)c(O)c4F)c3cn2)C2(CC2)C1 (centres unmarked) [Compound 19.52, 2,6-Difluoro-3-(5-(7-methoxy-4-azaspiro[2.5]octan-4-yl)-3-methyl-1H-pyrazolo[3,4-c]pyridine-1-yl)-5-(trifluoromethyl)phenol]
100 to 1000	CS(=O)(=O)N1CCN(c2cc3cnn(-c4cc(O)c(F)c(C(F)(F)F)c4)c3cc2F)CC1 [Compound 19.01, 2-Fluoro-5-(6-fluoro-5-(4-(methylsulfonyl)piperazin-1-yl)-1H-indazol-1-yl)-3-(trifluoromethyl)phenol]
100 to 1000	Oc1cc(-n2ncc3cc(-c4ccc(O)c(Cl)c4)ncc32)ccc1F [Compound 4.13, 2-Chloro-4-(1-(4-fluoro-3-hydroxyphenyl)-1H-pyrazolo[3,4-c]pyridine-5-yl)phenol]
1000 to 30000	CS(=O)(=O)Nc1ccccc1-c1ccc2c(cnn2-c2ccc(F)c(O)c2)c1 [Compound 5.14, N-(2-(1-(4-Fluoro-3-hydroxyphenyl)-1H-indazol-5-yl)phenyl)methanesulfonamide]
1000 to 30000	CS(=O)(=O)N1CCN(c2cc3cnn(-c4cc(O)c(F)c(F)c4)c3cc2C(F)(F)F)CC1 [Compound 21.19, 2,3-Difluoro-5-(5-(4-(methyl-sulfonyl)piperazin-1-yl)-6-(trifluoromethyl)-1H-indazol-1-yl)phenol]

same assay, conditions: read-out: HSD17β13 inhibition at 10 uM

inhibition at 10 µM [%]	SMILES
< 20	CN(C)C(=O)C1CCN(c2ccc3c(cnn3-c3ccc(F)c(O)c3)c2)CC1 [Compound 20.04, 1-(1-(4-Fluoro-3-hydroxy-phenyl)-1H-indazol-5-yl)-N,N-dimethylpiperidine-4-carboxamide]
25	Cc1nn(-c2cccc(O)c2C#N)c2cnc(N(C)C3CCOCC3)cc12 [Compound 19.120, 2-Hydroxy-6-(3-methyl-5-(methyl(tetrahydro-2H-pyran-4-yl)amino)-1H-pyrazolo[3,4-c]pyridin-1-yl)benzonitrile]
< 20	Cc1nc2cc(N3CCOCC34CC4)ncc2n1-c1cc(C(F)(F)F)c(F)c(O)c1F [Compound 21.63, 2,6-Difluoro-3-(2-methyl-6-(7-oxa-4-azaspiro[2.5]octan-4-yl)-3H-imidazo[4,5-c]pyridin-3-yl)-5-(trifluoromethyl)phenol]
